The IC50 is the point on the concentration scale where inhibition reaches its midpoint. Lower therefore signals greater potency.

The target of the test is T1, hROMK1 (Kir1.1) (Homo sapiens, UniProt P48048).
T1 construct: expressed in transfected cells
T1 sequence (P48048 1-391): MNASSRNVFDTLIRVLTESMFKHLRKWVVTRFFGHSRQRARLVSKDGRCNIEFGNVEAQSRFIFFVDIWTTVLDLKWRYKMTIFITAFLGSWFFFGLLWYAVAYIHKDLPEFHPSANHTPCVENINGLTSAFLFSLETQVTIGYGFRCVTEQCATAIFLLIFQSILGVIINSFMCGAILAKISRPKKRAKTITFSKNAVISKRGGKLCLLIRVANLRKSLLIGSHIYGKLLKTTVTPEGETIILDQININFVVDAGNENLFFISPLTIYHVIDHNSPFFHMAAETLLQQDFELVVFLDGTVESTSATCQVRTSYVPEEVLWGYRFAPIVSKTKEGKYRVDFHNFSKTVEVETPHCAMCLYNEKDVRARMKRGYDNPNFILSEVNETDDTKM
Nature of the test: ^86Rb^+ Efflux Assay. To be noted: CHO-DHFR- cells stably expressing hROMK1; potency ranges. The class given is cell-based. Here is the method: Several assays may be used to measure functional inhibition of the ROMK channel by compounds of the instant invention. One primary assay that can be used is a functional ^86Rb^+ efflux assay that measures the ability of ROMK to permeate ^86Rb^+, in the absence or presence of test compound. Under control conditions, cells loaded with ^86Rb^+ and incubated in Rb^+-free medium display a time-dependent efflux of the isotope, the rate of which depends on number of functional channels. When cells are incubated in the presence of a channel inhibitor, efflux of ^86Rb^+ is prevented in a concentration-dependent manner, and IC50 values of inhibition by compounds can be accurately determined. This assay has been established with cell lines expressing either human, rat or dog ROMK channels, and can operate in 96- or 384-well format. Importantly, the human, rat, and dog ^86Rb^+ efflux assays can be carried out in the presence of up to 100% serum allowing, therefore, an accurate estimation of the effect of protein binding on the inhibitory activity of compounds of interest. Another ROMK functional assay makes use of the ability of thallium to permeate through open ROMK channels and increase the fluorescence of a dye previously loaded into the cells. Under control conditions, cells loaded with dye and exposed to thallium-containing medium display a time-dependent increase in fluorescence, the rate of which depends on number of functional channels. When cells are incubated in the presence of a channel inhibitor, the increase in fluorescence is attenuated in a concentration-dependent manner, and IC50 values of inhibition by compounds can be accurately determined. This assay has been established with cell lines expressing either human, or rat ROMK channels, and operates in 384-well format. Another assay for evaluation of the compounds of the instant invention and for evaluation of mechanism of action of compounds of Formula I relies on the measurement of the electrical current that is generated as potassium permeates through the channel. For these electrophysiological experiments, three different platforms, IonWorks, QPatch, or manual patch clamp, are used, depending on the experimental protocol under consideration. IonWorks operates in a 384-well format and allows accurate determination of IC50 values for inhibitors.
CHO-DHFR-cells stably expressing hROMK1 (Kir1.1) were grown at 37° C. in a 10% CO2 humidified incubator in Iscove's Modified Dulbecco's Medium (Gibco 12440) supplemented with HT Supplement, Penicillin/Streptomycin/Glutamine, G418 (500 μg/ml) and 10% FBS. Cells were seeded in Sterile and Tissue Culture Treated Packard CulturPlate White Opaque Microplates at a concentration of 5.0E5-7.0E5 cells/ml—PerkinElmer 6005680 (96-well); Corning 3707 (384 well) in complete media containing 1.5 μCi/ml Rubidium-86. Cells were incubated in 37° C.-10% CO2 incubator overnight. On the day of the experiment, the media was removed and cells washed with low K assay buffer. ^86Rb^+ efflux was initiated after addition of assay buffer±test compound followed by 35 min incubation at room temperature. ROMK-sensitive component of efflux was defined in the presence of 10 mM BaCl2. Assay buffer was removed and transferred to a plate and cells were solubilized in the presence of SDS. Radioactivity associated with assay and cell plate was determined.
• 1. Removed cell media and washed cells with low K assay buffer (126.9 mM NaCl, 4.6 mM KCl, 2 mM CaCl2, 1 mM MgCl2, 10 mM Hepes/NaOH; pH 7.4) • 200 μl for 96-well plate; 70 μl for 384-well plate • 2. Added assay buffer (121.5 mM NaCl, 10 mM KCl, 2 mM CaCl2, 1 mM MgCl2, 10 mM Hepes/NaOH; pH 7.4)±test compound to cells • 100 μl for 96-well plate; 50 μl for 384-well plate • 3. Incubated at ambient temperature (22-24° C.) for 35 min • 4.
For `COc1cc(CC(=O)N2CCC(CCc3ccc4c(c3)COC4=O)CC2)c(F)cc1C#N` [Example 56, 5-Fluoro-2-methoxy-4-(2-oxo-2-{4-[2-(1-oxo-1,3-dihydro-2-benzofuran-5-yl)ethyl]piperidin-1-yl}ethyl)benzonitrile], the IC50 was ≤ 0.5 µM.
The value for `N#Cc1ccc(CC(=O)N2CCC(CCc3ccc4c(c3)COC4=O)CC2)cc1Br` [Example 64, 2-Bromo-4-[2-oxo-2-[4-[2-(1-oxo-3H-isobenzofuran-5-yl)ethyl]-1-piperidyl]ethyl]benzonitrile] was ≤ 0.5 µM; that for `O=C1OCc2cc(SC3CCN(C(=O)Cc4ccc(-n5cnnn5)cc4)CC3)ccc21` [Example 51, 5-[(1-{[4-(1H-Tetrazol-1-yl)phenyl]acetyl}piperidin-4-yl)sulfanyl]-2-benzofuran-1(3H)-one] was ≤ 0.5 µM.
For the compound `CCOC(=O)C1(CCc2ccc(F)c(C#N)c2)CCN(C(=O)Cc2ccc(-n3cnnn3)cc2)CC1` [Example 15, Ethyl 4-[2-(3-cyano-4-fluorophenyl)ethyl]-1-{[4-(1H-tetrazol-1-yl)phenyl]acetyl}piperidine-4-carboxylate], the IC50 is ≤ 0.5 µM.
With `Cc1cc(/C=C/C2CCN(CCc3ccc4c(c3)COC4=O)CC2)ccc1C#N` [Example 83], the IC50 was ≤ 0.2 µM.
`Cc1c(CCC2(O)CCN(C(=O)Cc3ccc(-n4cnnn4)cc3)CC2)ccc(F)c1C#N` [Example 37, 6-Fluoro-3-[2-(4-hydroxy-1-{[4-(1H-tetrazol-1-yl)phenyl]acetyl}piperidin-4-yl)ethyl]-2-methylbenzonitrile]: the half-inhibitory concentration (IC50) is ≤ 0.5 µM.
With `O=C1OCCc2cc(CCC3CCN(C(=O)Cc4ccc(-n5cnnn5)cc4)CC3)ccc21` [Example 65, 6-[2-(1-{[4-(1H-tetrazol-1-yl)phenyl]acetyl}piperidin-4-yl)ethyl]-3,4-dihydro-1H-isochromen-1-one], the IC50 was ≤ 0.2 µM.
For the compound `Cc1c(/C=C/C2CCN(C(=O)Cc3ccc(-n4cnnn4)cc3)CC2)ccc2c1COC2=O` [Example 41, 4-Methyl-5-[(E)-2-(1-{[4-(1H-tetrazol-1-yl)phenyl]acetyl}piperidin-4-yl)ethenyl]-2-benzofuran-1(3H)-one], the IC50 was ≤ 0.2 µM.
On to `COc1cc(C#N)c(F)cc1CC(=O)N1CCC(CCc2ccc3c(c2)COC3=O)CC1` [Example 70, 2-Fluoro-5-methoxy-4-(2-oxo-2-{4-[2-(1-oxo-1,3-dihydro-2-benzofuran-5-yl)ethyl]piperidin-1-yl}ethyl)benzonitrile], for which the IC50 was ≤ 0.2 µM.
On to `Cc1c(C#CC2(O)CCN(C(=O)Cc3ccc(-n4cnnn4)cc3)CC2)ccc(F)c1C#N` [Example 36, 6-Fluoro-3-[(4-hydroxy-1-{[4-(1H-tetrazol-1-yl)phenyl]acetyl}piperidin-4-yl)ethynyl]-2-methylbenzonitrile], for which the IC50 was ≤ 0.5 µM.
For `Cc1cc(-n2cnnn2)ccc1CC(=O)N1CCC(O)(CCc2ccc(F)c(C#N)c2)CC1` [Example 18, 2-Fluoro-5-[2-(4-hydroxy-1-{[2-methyl-4-(1H-tetrazol-1-yl)phenyl]acetyl}piperidin-4-yl)ethyl]benzonitrile], the IC50 is ≤ 0.5 µM.
For the compound `O=C(Cc1ccc(-n2cnnn2)cc1)N1CCC(CCc2ccc([N+](=O)[O-])cc2)CC1` [Example 4, 2-(4-(1H-Tetrazol-1-yl)phenyl)-1-(4-(4-nitrophenethyl)piperidin-1-yl)ethanone], the half-inhibitory concentration (IC50) is ≤ 0.2 µM.
Regarding `O=C(Cc1ccc(-n2cnnn2)cc1)N1CCC(/C=C/c2ccc3nonc3c2)CC1` [Example 5], the IC50 is ≤ 0.2 µM.
`CN(C)C1(CCc2ccc(F)c(C#N)c2)CCN(C(=O)Cc2ccc(-n3cnnn3)cc2)CC1` [Example 82, 5-{2-[4-(Dimethylamino)-1-{[4-(1H-tetrazol-1-yl)phenyl]acetyl}piperidin-4-yl]ethyl}-2-fluorobenzonitrile]: the IC50 is ≤ 0.5 µM.
On to `O=C1OCc2cc(CCC3CCN(C(=O)Cc4ccc(-n5cnnn5)cc4)CC3)ccc21` [Example 7, 5-[2-(1-{[4-(1H-Tetrazol-1-yl)phenyl]acetyl}piperidin-4-yl)ethyl]-2-benzofuran-1(3H)-one], for which the IC50 is ≤ 0.5 µM.
With `COc1cc(CC(=O)N2CCC(CCc3ccc4c(c3)COC4=O)CC2)ccc1C#N` [Example 53, 2-Methoxy-4-(2-oxo-2-(4-[2-(1-oxo-1,3-dihydro-2-benzofuran-5-yl)ethyl]piperidin-1-yl}ethyl]benzonitrile], the IC50 is ≤ 0.5 µM.
The result for `N#Cc1cc(/C=C/C2(O)CCN(C(=O)Cc3ccc(-n4cnnn4)cc3)CC2)ccc1F` [Example 29, 2-Fluoro-5-[(E)-2-(4-hydroxy-1-{[4-(1H-tetrazol-1-yl)phenyl]acetyl}piperidin-4-yl)ethenyl]benzonitrile] reads ≤ 0.5 µM; that for `O=C1OCc2c1ccc(CCC1CCN(C(=O)Cc3ccc(-n4cnnn4)cc3)CC1)c2F` [Example 57, 4-Fluoro-5-[2-(1-{[4-(1H-tetrazol-1-yl)phenyl]acetyl}piperidin-4-yl)ethyl]-2-benzofuran-1(3H)-one], ≤ 0.2 µM; that for `N#Cc1cc(CCC2(CO)CCN(C(=O)Cc3ccc(-n4cnnn4)cc3)CC2)ccc1F` [Example 26, 2-Fluoro-5-{2-[4-(hydroxymethyl)-1-{[4-(1H-tetrazol-1-yl)phenyl]acetyl}piperidin-4-yl]ethyl}benzonitrile], ≤ 0.5 µM.
The value for `COC(=O)C1(CCc2ccc([N+](=O)[O-])cc2)CCN(CCc2ccc([N+](=O)[O-])cc2)CC1` [Example 1, Methyl 1,4-bis[2-(4-nitrophenyl)ethyl]piperidine-4-carboxylate] was ≤ 0.2 µM; that for `N#Cc1cc(C#CC2(O)CCN(C(=O)Cc3ccc(-n4cnnn4)cc3)CC2)ccc1F` [Example 10, 2-Fluoro-5-[(4-hydroxy-1-{[4-(1H-tetrazol-1-yl)phenyl]acetyl}piperidin-4-yl)ethynyl]benzonitrile] was ≤ 0.5 µM.
In the case of `COc1cc(CCN2CCC(CCc3ccc4c(c3)COC4=O)CC2)ccc1C#N` [Example 71, 2-Methoxy-4-(2-{4-[2-(1-oxo-1,3-dihydro-2-benzofuran-5-yl)ethyl]piperidin-1-yl}ethyl)benzonitrile], the IC50 is ≤ 0.2 µM.
Consider `N#Cc1c(F)ccc(CCC2(O)CCN(C(=O)Cc3ccc(-n4cnnn4)cc3)CC2)c1Cl` [Example 40, 2-Chloro-6-fluoro-3-[2-(4-hydroxy-1-{[4-(1H-tetrazol-1-yl)phenyl]acetyl}piperidin-4-yl)ethyl]benzonitrile], for which the IC50 is ≤ 0.5 µM.
For `O=C(Cc1ccc(-n2cnnn2)cc1)N1CCC(O)(CCc2ccc3nonc3c2)CC1` [Example 8, 1-{4-[2-(2,1,3-Benzoxadiazol-5-yl)ethyl]-4-hydroxypiperidin-1-yl}-2-[4-(1H-tetrazol-1-yl)phenyl]ethanone], the IC50 was ≤ 0.5 µM.

The record behind these values is US9527830B2 (Merck Sharp & Dohme Corp., priority 2011, dated 2016).
